We go through 21 compounds from US11730720B2, “ALK5 inhibitors” (THERAVANCE BIOPHARMA R&D IP, LLC, priority 2018, dated 2023).

The target in assay [1] is T1, recombinant human ALK5 (TGF-βR1) protein (Homo sapiens, UniProt P36897).
T1 construct: purchased Life Technologies PR9075A
T1 sequence (P36897 34-503): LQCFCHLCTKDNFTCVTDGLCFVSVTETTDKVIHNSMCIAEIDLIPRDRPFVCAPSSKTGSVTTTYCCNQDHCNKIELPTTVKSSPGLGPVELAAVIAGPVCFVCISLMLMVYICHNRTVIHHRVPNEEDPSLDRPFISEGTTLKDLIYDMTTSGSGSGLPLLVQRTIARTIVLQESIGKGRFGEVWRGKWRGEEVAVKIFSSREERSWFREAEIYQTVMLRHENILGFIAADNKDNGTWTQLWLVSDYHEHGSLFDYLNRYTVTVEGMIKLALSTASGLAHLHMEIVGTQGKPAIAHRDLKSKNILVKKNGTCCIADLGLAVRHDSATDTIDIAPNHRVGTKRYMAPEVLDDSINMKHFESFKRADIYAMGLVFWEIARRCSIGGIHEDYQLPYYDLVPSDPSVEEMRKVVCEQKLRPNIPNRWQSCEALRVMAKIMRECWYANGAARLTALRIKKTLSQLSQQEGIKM
Kind of assay: Biochemical ALK5 (TGF-βR1) assay to measure pKi (LANCE Ultra ULight kinase assay). Particulars: apparent pKi, converted from pIC50 using the Cheng-Prusoff equation. The method, boiled down:
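TR-FRET kinase format: compound dose range 10 μM–25 pM equilibrated 60 min with human ALK5 and ULight-labelled topoisomerase 2α peptide in HEPES/MgCl2 buffer pH 7.5 with DTT. Reaction started with ATP (125 μM stock, 5× final), 60 min at 37° C, stopped with EDTA/Eu-anti-phospho antibody; pKi derived from pIC50 via Cheng-Prusoff.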
A general note: In TR-FRET formats the signal depends on donor and acceptor labels being close together.

Assay [2] deals with TGF-β-stimulated SMAD3 phosphorylation in BEAS-2B cells. Briefly: Cellular ALK5 potency assay, inhibition of TGF-β stimulated pSMAD3 formation in BEAS-2B cells. In kind it is cell-based. Particulars: Homo sapiens, inhibition of TGF-β (10 ng/mL) stimulated pSMAD3 formation, 1 hour compound incubation, read-out: BEAS2B pIC50 (converted). Summed up: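 Phospho-SMAD3 was quantified by AlphaLISA in lysates of human lung epithelial BEAS-2B cells. Compound was added 1 h (37 °C, HEPES/BSA-supplemented HBSS) before a 30 min challenge with 10 ng/mL TGF-β. Values are pIC50 relative to stimulated cells without compound.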

Where only a bound is given, the exact number is not on record here.

Consider `Fc1ccc(Cl)cc1-c1n[nH]cc1-c1ccc2ncc(C3=CCNC3)cc2n1` [Compound 1-93, 2-[3-(5-chloro-2-fluoro-phenyl)-1H-pyrazol-4-yl]-7-(2,5-dihydro-1H-pyrrol-3-yl)-1,5-naphthyridine], for which the Ki in assay [1] was 0.0398 to 0.316 nM. In addition, the IC50 in assay [2] was at most 20 nM.

For `CN1CCN(C2CCN(c3cnc4ccc(-c5nc[nH]c5-c5cc(Cl)ccc5F)nc4c3)CC2)CC1` [Compound 2-10, 2-[5-(5-chloro-2-fluoro-phenyl)-1H-imidazol-4-yl]-7-[4-(4-methylpiperazin-1-yl)-1-piperidyl]-1,5-naphthyridine], the Ki in assay [1] was 0.0398 to 0.316 nM. In addition, the IC50 in assay [2] is 25.1 to 158 nM.

As for `Fc1ccc(Cl)cc1-c1[nH]cnc1-c1ccc2ncc(N3CCCNCC3)cc2c1` [Compound 17-6, 6-[5-(5-chloro-2-fluoro-phenyl)-1H-imidazol-4-yl]-3-(1,4-diazepan-1-yl)quinoline], the Ki in assay [1] was 0.398 to 3.16 nM. For the same compound, in assay [2], the IC50 was 25.1 to 158 nM.

For the compound `Fc1ccc(Cl)cc1-c1n[nH]cc1-c1ccc2ncc(-c3nnn4c3CNCC4)cc2n1` [Compound 1-109, 2-[3-(5-chloro-2-fluoro-phenyl)-1H-pyrazol-4-yl]-7-(4,5,6,7-tetrahydrotriazolo[1,5-a]pyrazin-3-yl)-1,5-naphthyridine], in assay [1], the Ki was 0.0398 to 0.316 nM. Besides, the IC50 in assay [2] was 25.1 to 158 nM.

`C[C@@H]1CN(c2cnc3ccc(-c4c[nH]nc4-c4cc(Cl)ccc4F)nc3c2)[C@H](C)CN1C` (racemic) [Compound 1-75, 2-[3-(5-chloro-2-fluoro-phenyl)-1H-pyrazol-4-yl]-7-[rac-(2R,5R)-2,4,5-trimethylpiperazin-1-yl]-1,5-naphthyridine]: in assay [1], the Ki was 3.98 to 31.6 nM. The IC50 in assay [2] was 25.1 to 158 nM.

For `Fc1ccc(Cl)cc1-c1n[nH]cc1-c1ccc2ncc(-c3cnn(CC4CNC4)c3)cc2n1` [Compound 1-88, 7-[1-(azetidin-3-ylmethyl)pyrazol-4-yl]-2-[3-(5-chloro-2-fluoro-phenyl)-1H-pyrazol-4-yl]-1,5-naphthyridine], the Ki in assay [1] is 0.0398 to 0.316 nM. Besides, the IC50 in assay [2] was 25.1 to 158 nM.

As for `COC(=O)CC1CN(c2cnc3ccc(-c4nc[nH]c4-c4cccc(Cl)c4)nc3c2)CCN1` (stereo not drawn) [Compound 29-3, methyl 2-(4-(6-(5-(3-chlorophenyl)-1H-imidazol-4-yl)-1,5-naphthyridin-3-yl)piperazin-2-yl)acetate], in assay [1], the Ki was 0.398 to 3.16 nM. Also, in assay [2], the IC50 was 25.1 to 158 nM.

`COCc1cccc(-c2n[nH]cc2-c2ccc3ncc(NCCN4CCN(C(C)C)CC4)cc3n2)c1` [Compound 14-17, N-[2-(4-isopropylpiperazin-1-yl)ethyl]-6-[3-[3-(methoxymethyl)phenyl]-1H-pyrazol-4-yl]-1,5-naphthyridin-3-amine]: the Ki in assay [1] is 3.98 to 31.6 nM. Moreover, the IC50 in assay [2] was 200 to 1260 nM.

Regarding `Fc1ccc(-c2n[nH]cc2-c2ccc3ncc(-c4cn[nH]c4)cc3n2)c(F)c1` [Compound 10-1, 2-(3-(2,4-difluorophenyl)-1H-pyrazol-4-yl)-7-(1H-pyrazol-4-yl)-1,5-naphthyridine], the Ki in assay [1] was 0.0398 to 0.316 nM. Also, the IC50 in assay [2] is at most 20 nM.

On to `NC1CC=C(c2cnc3ccc(-c4c[nH]nc4-c4ccc(F)c(F)c4)nc3c2)CC1` (stereo not drawn) [Compound 8-19, 4-[6-[3-(3,4-difluorophenyl)-1H-pyrazol-4-yl]-1,5-naphthyridin-3-yl]cyclohex-3-en-1-amine], for which the Ki in assay [1] is 0.0398 to 0.316 nM. Besides, the IC50 in assay [2] was at most 20 nM.

Turning to `CNCCn1ccc(-c2cnc3ccc(-c4c[nH]nc4-c4cccc(COC)c4)nc3c2)n1` [Compound 14-10, 2-[3-[6-[3-[3-(methoxymethyl)phenyl]-1H-pyrazol-4-yl]-1,5-naphthyridin-3-yl]pyrazol-1-yl]-N-methyl-ethanamine], the Ki in assay [1] is 0.398 to 3.16 nM. In addition, the IC50 in assay [2] was 25.1 to 158 nM.

Consider `CN(C)C1CCN(c2cnc3ccc(-c4c(-c5cc(Cl)ccc5F)nc5ccccn45)nc3c2)C1` (racemic) [Compound 3-4, rac-(3S)-1-[6-[2-(5-chloro-2-fluoro-phenyl)imidazo[1,2-a]pyridin-3-yl]-1,5-naphthyridin-3-yl]-N,N-dimethyl-pyrrolidin-3-amine], for which the Ki in assay [1] is 0.0398 to 0.316 nM. For the same compound, the IC50 in assay [2] is 200 to 1260 nM.

Turning to `COC(=O)N1CCc2nnc(-c3cnc4ccc(-c5c[nH]nc5-c5cc(Cl)c(F)cc5F)nc4c3)cc2C1` [Compound 6-61, methyl 3-[6-[3-(5-chloro-2,4-difluoro-phenyl)-1H-pyrazol-4-yl]-1,5-naphthyridin-3-yl]-7,8-dihydro-5H-pyrido[4,3-c]pyridazine-6-carboxylate], the Ki in assay [1] was 0.0398 to 0.316 nM. For the same compound, the IC50 in assay [2] was 25.1 to 158 nM.

Regarding `CC(C)N1CC[C@@H](N(C)c2cnc3ccc(-c4c[nH]nc4-c4cc(Cl)c(F)cc4F)nc3c2)C1` [Compound 6-37, (R)-6-(3-(5-chloro-2,4-difluorophenyl)-1H-pyrazol-4-yl)-N-(1-isopropylpyrrolidin-3-yl)-N-methyl-1,5-naphthyridin-3-amine], the Ki in assay [1] is 0.0398 to 0.316 nM. For the same compound, the IC50 in assay [2] was 25.1 to 158 nM.

For `CN(CCN1CCNCC1)c1cnc2ccc(-c3c[nH]nc3-c3cc(Cl)ccc3F)nc2c1` [Compound 1-53, 6-[3-(5-chloro-2-fluoro-phenyl)-1H-pyrazol-4-yl]-N-methyl-N-(2-piperazin-1-ylethyl)-1,5-naphthyridin-3-amine], the Ki in assay [1] is 0.0398 to 0.316 nM. For the same compound, in assay [2], the IC50 is 25.1 to 158 nM.

`Fc1ccc(-c2n[nH]cc2-c2ccc3ncc(C4=CCC(NCc5ccccc5)CC4)cc3n2)cc1F` (stereo not drawn) [Compound 8-26, N-benzyl-4-[6-[3-(3,4-difluorophenyl)-1H-pyrazol-4-yl]-1,5-naphthyridin-3-yl]cyclohex-3-en-1-amine]: the Ki in assay [1] is 0.0398 to 0.316 nM. Further, the IC50 in assay [2] is 25.1 to 158 nM.

For the compound `CC1CN(c2cnc3ccc(-c4c[nH]nc4-c4cc(Cl)ccc4F)nc3c2)CC(C)N1CCN` (stereo not drawn) [Compound 1-122, 2-[4-[6-[3-(5-chloro-2-fluoro-phenyl)-1H-pyrazol-4-yl]-1,5-naphthyridin-3-yl]-2,6-dimethyl-piperazin-1-yl]ethanamine], the Ki in assay [1] is 0.0398 to 0.316 nM. The IC50 in assay [2] is 25.1 to 158 nM.

`NC1CCC(c2cnc3ccc(-c4c[nH]nc4-c4cc(Cl)ccc4F)nc3c2)CC1` (stereo not drawn) [Compound 1-98, 4-(6-(3-(5-chloro-2-fluorophenyl)-1H-pyrazol-4-yl)-1,5-naphthyridin-3-yl)cyclohexan-1-amine]: the Ki in assay [1] was 3.98 to 31.6 nM. Further, in assay [2], the IC50 is 200 to 1260 nM.

On to `COCc1cccc(-c2n[nH]cc2-c2ccc3ncc(-c4cnn(CC5CNC5)c4)cc3n2)c1` [Compound 14-11, 7-[1-(azetidin-3-ylmethyl)pyrazol-4-yl]-2-[3-[3-(methoxymethyl)phenyl]-1H-pyrazol-4-yl]-1,5-naphthyridine], for which, in assay [1], the Ki is 0.0398 to 0.316 nM. Besides, the IC50 in assay [2] is 25.1 to 158 nM.

`Fc1ccc(Cl)cc1-c1[nH]cnc1-c1ccc2ncc(-c3cnn4c3CNCC4)cc2n1` [Compound 2-22, 2-[5-(5-chloro-2-fluoro-phenyl)-1H-imidazol-4-yl]-7-(4,5,6,7-tetrahydropyrazolo[1,5-a]pyrazin-3-yl)-1,5-naphthyridine]: the Ki in assay [1] is 0.0398 to 0.316 nM. Also, in assay [2], the IC50 was 25.1 to 158 nM.

As for `NC1CCN(c2cnc3ccc(-c4c[nH]nc4-c4cc(Cl)ccc4F)nc3c2)CC1` [Compound 1-135, 1-[6-[3-(5-chloro-2-fluoro-phenyl)-1H-pyrazol-4-yl]-1,5-naphthyridin-3-yl]piperidin-4-amine], in assay [1], the Ki is 0.0398 to 0.316 nM. The IC50 in assay [2] was 25.1 to 158 nM.
